As usually defined, the Emax is the greatest response seen or fitted, relative to the assay's reference. Broadly, the EC50 is the concentration at which the effect is half-maximal. Read a low EC50 as greater potency. As usually defined, the Ki is the dissociation constant of the complex between target and ligand, obtained from inhibition or displacement. What is called viability is the share of living cells, or the viability signal relative to a control.

Here are results for 6 molecules from paper PMC6250127 (Journal of medicinal chemistry, 2015).

Data set [1] deals with T1, rat D3 receptor (Rattus norvegicus, UniProt P19020). Particulars: ratio of Ki values; cited from earlier work.
T1 sequence (P19020 whole entry): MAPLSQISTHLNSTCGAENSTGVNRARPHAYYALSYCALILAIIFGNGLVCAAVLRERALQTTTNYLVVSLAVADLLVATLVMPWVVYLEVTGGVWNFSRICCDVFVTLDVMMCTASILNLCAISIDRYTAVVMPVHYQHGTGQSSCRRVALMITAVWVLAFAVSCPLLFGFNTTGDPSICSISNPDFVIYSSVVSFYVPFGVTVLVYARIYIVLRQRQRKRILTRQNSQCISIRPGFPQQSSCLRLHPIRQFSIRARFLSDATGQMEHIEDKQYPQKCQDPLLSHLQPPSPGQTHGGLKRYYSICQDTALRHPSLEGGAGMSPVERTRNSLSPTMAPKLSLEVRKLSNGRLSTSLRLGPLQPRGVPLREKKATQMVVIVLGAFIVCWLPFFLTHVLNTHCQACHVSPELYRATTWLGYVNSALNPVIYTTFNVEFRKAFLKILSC
For data set [2], the target named is human D3 receptor (Homo sapiens, UniProt P35462). As to the kind of experiment: Stimulation of [35S]GTPγS binding, human D3 receptor in CHO cells. In kind it is biochemical. Particulars: for Emax: read-out: hCHO−D3 Emax, percent of Emax observed with 100 μM DA; for D2/D3: ratio of GTPγS EC50 values.
human D3 receptor, sequence (P35462 whole entry): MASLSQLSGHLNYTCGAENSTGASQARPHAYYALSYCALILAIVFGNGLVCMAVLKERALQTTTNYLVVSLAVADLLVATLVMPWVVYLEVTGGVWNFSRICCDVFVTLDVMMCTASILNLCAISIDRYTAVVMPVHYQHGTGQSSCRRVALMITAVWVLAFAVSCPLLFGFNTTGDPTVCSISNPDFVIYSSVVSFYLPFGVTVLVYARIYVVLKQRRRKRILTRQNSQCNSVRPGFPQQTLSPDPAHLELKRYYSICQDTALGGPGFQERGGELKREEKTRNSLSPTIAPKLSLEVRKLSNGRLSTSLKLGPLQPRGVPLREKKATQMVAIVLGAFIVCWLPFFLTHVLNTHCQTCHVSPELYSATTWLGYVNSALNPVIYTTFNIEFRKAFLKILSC
Data set [3] concerns the target human D2 receptor (Homo sapiens, UniProt P14416). The data set is described as follows: Stimulation of [35S]GTPγS binding, human D2 receptor in CHO cells. The conditions noted are these: for Emax: read-out: hCHO−D2 Emax, percent of Emax observed with 1 mM DA; for hCHO−D2 Emax: percent of Emax observed with 1 mM DA. In kind it is biochemical.
In data set [4] the test system is PC12 cells. As to the kind of experiment: Neuroprotection against 6-OHDA-induced toxicity in PC12 cells. The conditions noted are these: 24 h pretreatment, then 75 μM 6-OHDA for 24 h.
Data set [5] concerns reserpinized rats. As to the kind of experiment: Reversal of reserpine-induced hypolocomotion in rats. The conditions noted are these: for reversal of reserpine-induced hypolocomotion (locomotor activity): 10 μMol/kg ip, reserpine 5 mg/kg sc, 18 h pretreatment, rats; for duration of locomotor activation: 10 μMol/kg, reserpinized rats, locomotion monitored for 6 h. In kind it is in vivo, rat.

For data set [6], the system named is PC12 cells. The data set is described as follows: PC12 cell viability, direct effect of compound. The conditions noted are these: PC12 cells, 0.01− 30 μM.
In data set [7] the target is T1, rat D3 receptor. The data set is described as follows: [3H]spiroperidol competition binding, rat D3 receptor in HEK-293 cells. Particulars: for D2L/D3: ratio of Ki values, selectivity for D3.
Data set [8] has as its target rat D2L receptor (Rattus norvegicus, UniProt P61169). As to the kind of experiment: [3H]spiroperidol competition binding, rat D2L receptor in HEK-293 cells.
Data set [9] can be described thus: PC12 cell viability, direct effect of compound. The conditions noted are these: rat.

Entries after “also recorded” stand apart in the source; their conditions may differ. Where two headings read alike, the source gives them in different places.

human D2 receptor, sequence (P14416 whole entry): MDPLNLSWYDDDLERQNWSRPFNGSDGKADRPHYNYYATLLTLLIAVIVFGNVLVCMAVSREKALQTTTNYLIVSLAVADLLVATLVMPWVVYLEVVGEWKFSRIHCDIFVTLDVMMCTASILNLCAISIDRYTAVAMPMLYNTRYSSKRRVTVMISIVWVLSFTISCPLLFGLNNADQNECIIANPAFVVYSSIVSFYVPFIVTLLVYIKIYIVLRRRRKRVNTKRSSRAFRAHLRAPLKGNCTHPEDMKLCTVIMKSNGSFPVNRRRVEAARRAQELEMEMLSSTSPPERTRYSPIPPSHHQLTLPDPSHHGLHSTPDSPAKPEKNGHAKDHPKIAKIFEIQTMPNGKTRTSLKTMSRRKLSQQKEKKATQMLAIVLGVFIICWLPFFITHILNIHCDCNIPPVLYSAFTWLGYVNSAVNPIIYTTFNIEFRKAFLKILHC
rat D2L receptor, sequence (P61169 whole entry): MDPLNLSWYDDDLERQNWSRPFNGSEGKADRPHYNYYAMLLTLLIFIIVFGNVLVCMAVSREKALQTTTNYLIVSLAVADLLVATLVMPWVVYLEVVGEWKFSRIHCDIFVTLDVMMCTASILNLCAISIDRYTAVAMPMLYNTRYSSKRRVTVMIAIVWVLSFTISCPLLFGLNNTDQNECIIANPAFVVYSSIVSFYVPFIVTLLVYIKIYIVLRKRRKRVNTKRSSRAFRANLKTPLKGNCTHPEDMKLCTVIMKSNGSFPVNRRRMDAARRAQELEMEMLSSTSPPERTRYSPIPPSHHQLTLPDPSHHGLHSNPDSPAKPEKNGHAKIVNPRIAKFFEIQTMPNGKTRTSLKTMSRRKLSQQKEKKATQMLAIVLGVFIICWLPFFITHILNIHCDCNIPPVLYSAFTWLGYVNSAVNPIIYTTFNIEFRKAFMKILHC

With `CCCN(CCN1CCN(C(=O)c2c[nH]c3ccccc23)CC1)C1CCc2nc(N)sc2C1` [D-443, (4-(2-((2-amino-4,5,6,7-tetrahydrobenzo[d]-thiazol-6-yl)(propyl)amino)ethyl)-piperazin-1-yl)(1H-indol-3-yl)methanone], in data set [1], the D2L/D3 is 360.
As to `CCCN(CCN1CCN(c2ccc3cc[nH]c3c2Cl)CC1)[C@H]1CCc2nc(N)sc2C1.O=C(O)C(F)(F)F` [(−)-21a, (S)-N^6-(2-(4-(7-Chloro-1H-indol-6-yl)piperazin-1-yl)ethyl)-N^6-propyl-4,5,6,7-tetrahydrobenzo[d]thiazole-2,6-diamine], the Emax in data set [2] and in [3] was > 100% in each case. Further, the “neuroprotective effect against 6-OHDA-induced toxicity” value in [4] was “neuroprotective; also recorded: dose-dependently protected the cells from the neurotoxic insult”. The “reversal of reserpine-induced hypolocomotion (locomotor activity)” value (“reversal” below) in data set [5] is on record as “highly effcacious in reversing hypolocomotion; also recorded: highly efficacious in reversing akinesia in rats”. Also, the “duration of locomotor activation” value in [5] is listed as “long duration of action; also recorded: significant enhancement of locomotion for the entire duration of the study of 6 h”. For the same molecule, in [6], the “effect of compound alone on cell viability” value is given as “no cell loss at all”.
For the molecule `C#CCN(CCN1CCN(c2ccc3[nH]ccc3c2Cl)CC1)[C@H]1CCc2nc(N)sc2C1` [(−)-34, (S)-N^6-(2-(4-(4-Chloro-1H-indol-5-yl)piperazin-1-yl)ethyl)-N^6-(prop-2-yn-1-yl)-4,5,6,7-tetrahydrobenzo[d]thiazole-2,6-diamine], in [2], a half-maximal effect (EC50) was put at 10.9 ± 2.4 nM, the D2/D3 is listed as 1.98 and the Emax came to 94 ± 3.5%. Also, in data set [3], the response was half-maximal at 21.6 ± 9.6 nM (EC50) and the “hCHO−D2 Emax” value is reported as 26.7 ± 6.4%. For the same molecule, in data set [7], the affinity, expressed as Ki, was 14.4 ± 1 nM and the D2L/D3 stood at 5.99. In addition, the Ki in data set [8] worked out at 86.5 ± 15 nM. In addition, in data set [5], the “reversal” value is given as “able to elevate locomotor activity in the above PD animal model significantly; also recorded: locomotor activity was enhanced compared to control but was less than that observed with (−)-21a”.
Turning to `CCCN(CCC)CCc1cccc2c1CC(=O)N2` [ropinirole, reference compound], in [5], the “reversal” value is recorded as “quick onset of locomotor activation compared to control” and the “duration of locomotor activation” value is “much shorter duration of action compared with (−)-21a”.
As for `C#CCN(CCN1CCN(c2ccc3cc[nH]c3c2Cl)CC1)[C@H]1CCc2nc(N)sc2C1` [(−)-36, (S)-N^6-(2-(4-(7-Chloro-1H-indol-6-yl)piperazin-1-yl)ethyl)-N^6-(prop-2-yn-1-yl)-4,5,6,7-tetrahydrobenzo[d]thiazole-2,6-diamine], in [2], the EC50 stood at 0.84 ± 0.05 nM, the D2/D3 stood at 46.9 and the Emax was ~100%. Further, the “hCHO−D3 Emax” value in data set [2] (percent of Emax observed with 100 μM DA) worked out at 93.4 ± 3.6%. Also, in [3], it took 39.4 ± 6.3 nM to reach a half-maximal effect (EC50), the “hCHO−D2 Emax” value was 86.8 ± 3.8% and the Emax is ~100%. Besides, in data set [7], the affinity, expressed as Ki, was 0.145 ± 0.035 nM and the D2L/D3 was found to be 1186. The inhibitory constant (Ki) in data set [8] was 172 ± 16 nM.
In the case of `NCCc1cc(O)c(O)cc1O` [6-OHDA, 6-hydroxydopamine, reference compound], in data set [9], the viability at 24 h, 75 μM is ~50%.
